# Source: ChEMBL document CHEMBL3832043, “DailyMed|setid=ef14e332-51ac-ea97-3542-9bc92557dbed | PROPOFOL- propofol injection, emulsion|APP Pharmaceuticals, LLC”
# How the values were obtained:
# [1] = Pharmacokinetic parameters of Propofol following intravenous administration in subjects.; details: human, in vivo
# [2] = Pharmacokinetic parameters for Propofol following multiple intravenous administration in subjects.; details: human, in vivo
structure (smiles),measurement,setting,value
CC(C)c1cccc(C(C)C)c1O [PROPOFOL],clearance,[1],23 to 50 mL/min/kg
same,half-life,[2],24 to 72 h
